# pIC50: −log10 of the molar value.
# Columns and labels:
# [1] = tested on: embryonic rat cortices; assay: Acute glutamate neurotoxicity in cortical cell cultures (lactate dehydrogenase release); assay type: cell-based; conditions: neuronal degeneration, 500 µM glutamate for 5 to 30 minutes at room temperature, lactate dehydrogenase in supernatant after overnight at 37°C, read-out: IC₅₀
# Method: 2. Acute Glutamate Neurotoxicity
# Single cell suspensions were prepared from embryonic rat cortices (E16-17) by digestion with dispase 2.4 U/ml (BOEHRINGER) and subsequent trituration with fire polished pasteur pipettes. The cells were then plated on poly-D-lysine (SIGMA) coated 96 well microtiter plates (NUNC, 10⁵ cells/well) in a total volume of 100 µl Dulbeccos modified essential medium (DMEM, GIBCO) supplemented with 10% horse serum and penicillin/streptomycin (SIGMA). 5 days later, non-neuronal cell division was halted by exposure to […] combined with a 50% exchange of culture medium. The cultures were used for neurotoxicity assays from 8-12 days in vitro.
# Acute glutamate toxicity was performed according to D.W. Choi. J. Koh and S. Peters, J. Neurosci. 8 (1988) 185-196, in 100 µl of a control salt solution (CSS: 120 mM NaCl, 5.4 mM KCl, 0.8 mm MgCl₂, 1.8 mM CaCl₂, 25 mM Tris HCl (pH 7.4 at 25°C) and 15 mM glycose) with 500 µM glutamate for 5 to 30 minutes at room temperature with or without addition of substances to be tested.
# After washing, the cultures were maintained in 100 µl CSS overnight at 37°C. For quantitation of neurodegeneration, lactate dehydrogenase was measured in the cell culture supernatant as described by J.G. Klingman, D.M. Hartley and D.W. Choi, J. Neurosci. Meth. 31 (1990) 47-51 using a BIOMEK workstation (BECKMAN). […] From dose response curves IC₅₀ values were calculated.
# [2] = target: NMDA receptor; assay: 3H-MK 801 (dizocilpine) binding in vitro, rat brain membranes; conditions: displacement of 5 nM ³H-MK 801, washed rat brain membranes; high affinity values determined from biphasic displacement curves; read-out: IC₅₀
# Method: 1. ^3H-MK 801 (dizocilpine) binding in vitro
# ³H-MK 801 binding was performed as described in Ransom, R.W. and Stec, N.L., J. Neurochem. 51 (1988) 830-836, with extensively washed rat brain membranes prepared according to the following scheme. Frozen whole rat brain was thawed and cerebellum and medulla oblongata were removed on ice. The tissue was then homogenized with an Ultra Turrax (maximal energy) during 30 sec at 4°C in 50 volumes of Tris·HC1 (5mM) with ethylenediaminetetraacetic acid (EDTA) disodium (10 mM, pH = 7.4). The homogenate was centrifuged at 48'000 x g for 10 min. The pellet was rehomogenized with the same volume of the same buffer and the homogenate was then incubated at 37°C for 10 min. After centrifugation the pellet was rehomogenized under the same conditions and frozen at -80°C in 35 ml fractions for at least 16 hours and not more than 2 weeks.
# On the day of experiment, the homogenate was thawed 15 minutes at 37°C and centrifuged as above. The pellet was rehomogenized in 25 volumes of Tris·HC1 buffer (5mM, pH = 7.4) and the homogenate was recentrifuged. This procedure was repeated twice. The final pellet was rehomogenized in 25 volumes of Tris·HC1 buffer (5 mM, pH = 7.4) related to the original wet weight and used as such in the assay. Final concentration in the assay was 20 mg/ml.
# 300 µl of tracer solution (final concentration 5 nM ³H-MK 801) in Tris·HC1 buffer (5 mM, pH 7.4) were incubated with 100 µl of test solution (100 µl of Tris·HC1 buffer for the total binding or 100 µl of buffer plus N-(1-(2-thienyl)cyclohexyl)piperidine (TCP) (final concentration 0.1 µM) for non specific binding). Glutamate, glycine and spermidine (final concentrations 1nM) were added together in 100 µl volume. 500 µl of homogenate (final concentration 20 mg/ml) were then added in the plastic reaction tubes. After 2 hours of incubation at room temperature, the suspension was filtered (Whatmann GF/B, presoaked in 0.05% polyethylenimine for 2 hours) and washed 5 times with 3 ml of cold buffer. The air-dried (3 min) filters were counted in 10 ml of Ultima-gold (Packard) after agitation (10 min.) and standing for 2 hours at 3°C in vials.
# These are high affinity values determined from biphasic displacement curves.
Compound,pIC50 [2],pIC50 [1]
"CC(Cc1ccccc1)CN1CCC(Cc2ccccc2)CC1 (racemic) [Ex. 21, rac.-1-(2-Methyl-3-phenylpropyl)-4-(phenylmethyl)piperidine]",5.85,4.89
"C[C@@H](CN1CCC(Cc2ccccc2)CC1)[C@@H](O)c1ccc(O)cc1 (relative stereo) [Ex. 8, (R*,S*)-rac.-α-(4-hydroxyphenyl)-β-methyl-4-(phenylmethyl)-1-piperidinepropanol]",8.30,7.40
"C[C@H](CN1CCC(Cc2ccccc2)CC1)[C@@H](O)c1ccc(O)cc1 (relative stereo) [Ex. 9, (R*,R*)-rac.-α-(4-Hydroxyphenyl)-β-methyl-4-(phenylmethyl)-1-piperidinepropanol]",8.22,6.96
"C[C@@H](CN1CCC(Cc2ccccc2)CC1)[C@@H](O)c1ccc(O)cc1 [Ex. 15, [R-(R*S*)]-α-(4-Hydroxyphenyl)-β-methyl-4-(phenylmethyl)-1-piperidinepropanol]",8.89,7.22
"C[C@H](CN1CCC(Cc2ccccc2)CC1)[C@H](O)c1ccc(O)cc1 [Ex. 16, [S-(R*S*)]-α-(4-Hydroxyphenyl)-β-methyl]-4-(phenylmethyl)-1-piperidinepropanol]",8.52,7.10

# Now from value to compound, other results behind:
pIC50 [2],Compound,pIC50 [1]
6.28,"CC(CCN1CCC(Cc2ccccc2)CC1)Cc1ccc(O)cc1 (racemic) [Ex. 6, rac.-4-[2-Methyl-4-[4-(phenylmethyl)-1-piperidinyl]butyl]phenol]",5.46
6.82,"CC(Cc1ccc(O)cc1)C(C)N1CCC(Cc2ccccc2)CC1 (racemic) [Ex. 10, rac.-4-[2-Methyl-3-[4-(phenylmethyl)-1-piperidinyl]butyl]phenol]",6.92
6.52,"C[C@@H](CCN1CCC(Cc2ccccc2)CC1)[C@@H](O)c1ccc(O)cc1 (relative stereo) [Ex. 5, (R*,S*)-rac.-α-(4-Hydroxyphenyl)-β-methyl-4-(phenylmethyl)-1-piperidinebutanol]",5.72
5.89,"C[C@@H](CN1CCC(Cc2ccccc2)CC1)[C@@H](O)c1ccc(OCc2ccccc2)cc1 (relative stereo) [Ex. 7, (R*,S*)-rac.-β-Methyl-α-[4-(phenylmethoxy)phenyl]-4-(phenylmethyl)-1-piperidinepropanol]",4.19
6.05,"C[C@@H](CN1CCC(Cc2ccccc2)CC1)C(=O)c1ccc(OCc2ccccc2)cc1 [Ex. 12, (S)-2-Methyl-1-[4-(phenylmethoxy)phenyl]-3-[4-(phenylmethyl)-1-piperidinyl]-1-propanone]",4.18

# — patent EP0648744A1, “Phenylalkanolamine derivatives as antagonists of the NMDA receptor” (F. HOFFMANN-LA ROCHE AG, priority 1993, dated 1995)
